Measurements taken from the supplement of paper PMC10307832.

Key:
Assay in all cases: relative viability (nuclei count vs DMSO), 5 days (fraction); higher = more cells survive
[1] = tested on: NCI-H2347
How it was run: (§1)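 Lung cancer cell lines were seeded in 1536-well plates and dosed by pin tool the next day, with either a single drug or a fixed anchor-drug dose combined with five library-drug doses (not always all listed) spaced in √10 steps. Five days later, one step fixed the cells and stained their nuclei (final 0.05% Triton X-100, 1% formaldehyde, 1 ug/ml Hoechst), and nuclei were counted on 4× images. Relative viability is the nuclei count in treated wells divided by the count in vehicle wells, and each value is the median of duplicate plates.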

[2] = tested on: BEN
How it was run: as §1

[3] = tested on: NCI-H3122
How it was run: as §1

[4] = tested on: HOP-62
How it was run: as §1

[5] = tested on: LOU-NH91
How it was run: as §1

[6] = tested on: NCI-H2126
How it was run: as §1

[7] = tested on: NCI-H1793
How it was run: as §1

[8] = tested on: NCI-H1944
How it was run: as §1

[9] = tested on: NCI-H1395
How it was run: as §1

[10] = tested on: NCI-H1915
How it was run: as §1

[11] = tested on: CAL-12T
How it was run: as §1

Question: Which relative viability ([1]; first compound 0.001 µM) does the source give for `Cc1cn(-c2cc(NC(=O)c3ccc(C)c(Nc4nccc(-c5cccnc5)n4)c3)cc(C(F)(F)F)c2)cn1` [Nilotinib] + CCNC(=O)c1noc(-c2cc(C(C)C)c(O)cc2O)c1-c1ccc(CN2CCOCC2)cc1 [Luminespib] (partner 0.01 µM) here?
Answer: 0.344

Question: What about the relative viability ([1]; first compound 0.003162 µM) of the same compound?
Answer: 0.263

Question: What about the relative viability ([1]; first compound 0.01 µM) of the same compound?
Answer: 0.712

Question: And the relative viability ([1]; first compound 0.03162 µM)?
Answer: 0.589

Question: And the relative viability ([1]; first compound 0.1 µM)?
Answer: 0.598

Question: What about the relative viability ([2]; first compound 0.001 µM) of the same compound?
Answer: 0.563

Question: And the relative viability ([2]; first compound 0.003162 µM)?
Answer: 0.275

Question: And the relative viability ([2]; first compound 0.01 µM)?
Answer: 0.378

Question: And the relative viability ([2]; first compound 0.03162 µM)?
Answer: 0.277

Question: And the relative viability ([2]; first compound 0.1 µM)?
Answer: 0.256

Question: What about the relative viability ([3]; first compound 0.001 µM) of the same compound?
Answer: 0.109

Question: What about the relative viability ([3]; first compound 0.003162 µM) of the same compound?
Answer: 0.106

Question: And the relative viability ([3]; first compound 0.01 µM)?
Answer: 0.0956

Question: And the relative viability ([3]; first compound 0.03162 µM)?
Answer: 0.0805

Question: What about the relative viability ([3]; first compound 0.1 µM) of the same compound?
Answer: 0.047

Question: And the relative viability ([4]; first compound 0.001 µM)?
Answer: 0.727

Question: What about the relative viability ([4]; first compound 0.003162 µM) of the same compound?
Answer: 0.792

Question: What about the relative viability ([4]; first compound 0.01 µM) of the same compound?
Answer: 0.839

Question: And the relative viability ([4]; first compound 0.03162 µM)?
Answer: 0.786

Question: And the relative viability ([4]; first compound 0.1 µM)?
Answer: 0.529

Question: And the relative viability ([5]; first compound 0.001 µM)?
Answer: 0.318

Question: What about the relative viability ([5]; first compound 0.003162 µM) of the same compound?
Answer: 0.308

Question: What about the relative viability ([5]; first compound 0.01 µM) of the same compound?
Answer: 0.346

Question: What about the relative viability ([5]; first compound 0.03162 µM) of the same compound?
Answer: 0.276

Question: What about the relative viability ([5]; first compound 0.1 µM) of the same compound?
Answer: 0.321

Question: And the relative viability ([6]; first compound 0.001 µM)?
Answer: 0.832

Question: And the relative viability ([6]; first compound 0.003162 µM)?
Answer: 1

Question: And the relative viability ([6]; first compound 0.01 µM)?
Answer: 1.1

Question: And the relative viability ([6]; first compound 0.03162 µM)?
Answer: 0.936

Question: And the relative viability ([6]; first compound 0.1 µM)?
Answer: 0.596

Question: What about the relative viability ([7]; first compound 0.001 µM) of the same compound?
Answer: 0.158

Question: What about the relative viability ([7]; first compound 0.003162 µM) of the same compound?
Answer: 0.162

Question: And the relative viability ([7]; first compound 0.01 µM)?
Answer: 0.195

Question: And the relative viability ([7]; first compound 0.03162 µM)?
Answer: 0.168

Question: And the relative viability ([7]; first compound 0.1 µM)?
Answer: 0.166

Question: What about the relative viability ([8]; first compound 0.001 µM) of the same compound?
Answer: 0.627

Question: What about the relative viability ([8]; first compound 0.003162 µM) of the same compound?
Answer: 0.669

Question: And the relative viability ([8]; first compound 0.01 µM)?
Answer: 0.669

Question: What about the relative viability ([8]; first compound 0.03162 µM) of the same compound?
Answer: 0.694

Question: And the relative viability ([9]; first compound 0.001 µM)?
Answer: 0.713

Question: What about the relative viability ([9]; first compound 0.003162 µM) of the same compound?
Answer: 0.39

Question: And the relative viability ([9]; first compound 0.01 µM)?
Answer: 0.702

Question: And the relative viability ([9]; first compound 0.03162 µM)?
Answer: 0.713

Question: What about the relative viability ([9]; first compound 0.1 µM) of the same compound?
Answer: 0.814

Question: And the relative viability ([10]; first compound 0.001 µM)?
Answer: 0.713

Question: And the relative viability ([10]; first compound 0.003162 µM)?
Answer: 0.896

Question: What about the relative viability ([10]; first compound 0.01 µM) of the same compound?
Answer: 1.41

Question: What about the relative viability ([10]; first compound 0.03162 µM) of the same compound?
Answer: 0.553

Question: What about the relative viability ([10]; first compound 0.1 µM) of the same compound?
Answer: 0.759

Question: And the relative viability ([11]; first compound 0.001 µM)?
Answer: 0.66

Question: And the relative viability ([11]; first compound 0.003162 µM)?
Answer: 0.335

Question: What about the relative viability ([11]; first compound 0.01 µM) of the same compound?
Answer: 0.665

Question: What about the relative viability ([11]; first compound 0.03162 µM) of the same compound?
Answer: 0.222

Question: And the relative viability ([11]; first compound 0.1 µM)?
Answer: 0.212
